The results in this text go back to paper PMC12542666, “Mechanistic insights into the dimethylsulfoniopropionate synthesis enzyme BurB” (Applied and Environmental Microbiology, 2025).

Like-named read-outs stand apart in the source and are kept apart here.

Assay [1] has as its target BurB from Burkholderia thailandensis (Burkholderia thailandensis). Description: SEC.
Another assay has as its system BurB. Format: biochemical, Burkholderia thailandensis.

Consider “BurB from Burkholderia thailandensis (enzyme)”, for which the stoichiometry N in assay [1] came to 4. In the case of `CSCC[C@H](N)C(=O)O` [Met], the Km in the assay with BurB (pH 9.0, 40 °C) was 16.6 mM. In the case of `C[S+](CC[C@H](N)C(=O)O)C[C@H]1O[C@@H](n2cnc3c(N)ncnc32)[C@H](O)[C@@H]1O` (stereo partly drawn) [SAM], the Km in the assay with BurB amounted to 1.8 mM.
